Experimental data as given in article PMC12442099 (ACS Infectious Diseases, 2025).
≈ marks a conversion by molar mass, not a printed value.

Assays:
E. coli MC4100 = assay: Growth inhibition after 7 hours (EC80/EC50); conditions: Escherichia coli, MC4100, 7 h; for EC50: read-out: EC50 MC4100; for IC80: read-out: EC80 MC4100
[1] = system: E. coli MC4100 FQR and GEPR mutants; assay: Growth kinetics on resistant mutants; assay type: cell-based; conditions: EC80 concentrations, Fig. S3
Experimental: ONC of E. coli MC4100 were diluted to OD600 = 0.07 in 20 mL LB supplemented with an initial concentration of 0.4 μM lomefloxacin, 8 μM gepotidacin, or no antibiotic. After overnight incubation, part of the culture was plated onto LB agar plates with the same concentration of lomefloxacin or gepotidacin to isolate resistant colonies. OD600 of the remaining culture was determined and diluted to OD600 = 0.1 into fresh medium with a 1.5–2-fold increased concentration of lomefloxacin or gepotidacin. […] Resistant colonies were sent for Whole Genome Sequencing using short Illumina reads at MicrobesNG (Birmingham, UK). Sequencing data was analyzed using CLC Genomics Workbench (Qiagen).
Figure S3: Growth kinetics of lomefloxacin, gepotidacin, A2 and B1 on WT, FQR and GEPR mutants. E. coli
TOP10F’ cells were treated with EC80 concentrations of compounds and growth (OD600) recorded over time.
Graphs indicate % growth compared to DMSO control. Error bars indicate standard deviations of triplicates. […]

E. coli TOP10F’ cells = assay: Phase contrast and fluorescence microscopy of cell morphology; assay type: cell-based; conditions: EC50 concentrations, 4 h, vs DMSO
Description: DMSO-treated control cells had normal rod-shaped morphology. Drastic changes to cell and membrane morphology were observed following compound treatment.
Cells were stained with Nile red to visualize membranes and Hoechst to label DNA. a: Phase Contrast; b: Nile Red; c: Hoechst; d: overlay of Nile Red and Hoechst. White arrows indicate differences observed between control and compound treated cells, such as different localization and increased number of bright, lipid spots, vesicle-like bulges, apparent leakage of lipid contents and condensed DNA. Pictures are representative of at least 5 images taken per sample, during two independent experiments with similar results. Bottom panels show (B) cell length or (C) cell area after treatment with DMSO or EC50 concentrations of A2 or B1. Cells were analyzed after 4h of compound treatment. Data are representative of two independent experiments with similar results. Data were analyzed using a One-Way ANOVA with Kruskal–Wallis test for multiple comparisons. **** = p < 0.0001. Cells were counted from 3 to 5 pictures of each condition (DMSO: n = 1773, A2: n = 1920, B1: n = 555). Data are representative of two individual experiments with similar results.
Cells were collected at 4600g for 5 min. […]
Images were processed using ImageJ. Cell length and width were quantified using Oufti. Image data were analyzed using GraphPad Prism 10.3.1. […]

[2] = system: SOS stress response in E. coli MC4100; assay: SOS stress reporter assay (PlexA-mNG); assay type: cell-based; conditions: EC80 compound concentrations (Fig. 5A); Fig. S4
Description: To examine the potential link between DNA gyrase inhibition, SOS stress, and CE stress, we designed a fluorescent SOS reporter plasmid, similar to the reporter plasmids used to study CE stresses.
5 (A) SOS stress induced by different compounds at EC80 concentrations in E. coli MC4100. (B) Rcs stress of different compounds at EC80 concentrations in E. coli MC4100. (C) Rcs stress of the nonquinolone gyrase inhibitor LEI-800 in TOP10F’. (D) Rcs stress induced by mitomycin C in E. coli TOP10F’ and E. coli MC4100. Graphs show fold change in fluorescence adjusted for bacterial growth (OD600). Error bars indicate standard deviation of triplicates. Data are representative of two independent experiments with similar results.

E. coli TOP10F’ = assay: NPN uptake assay (outer membrane permeability); assay type: cell-based; conditions: 1 h, 10 μM NPN
Experimental: To investigate the effect of our quinolone hits on membrane permeability, we performed a 1-N- phenylnaphthylamine NPN uptake assay (Figure ), as described previously. NPN is a hydrophobic fluorophore that is unable to cross the OM under normal conditions.
6 Effect of compounds (A) A2 and (B) B1 on membrane integrity analyzed by NPN permeability. Polymyxin B was used at 1 μM and PMBN at 4 μM as membrane permeabilizing control compounds. Data represent the average relative fluorescence values of three independent experiments performed in triplicate. Error bars represent standard deviation of three independent experiments. Data were analyzed using a One-Way ANOVA with Dunnett’s multiple comparisons. **: p = 0.0017; ****: p < 0.0001.
ONC of E. coli TOP10F’ grown in LB were diluted to OD600 = 0.1 and subsequently grown until OD600 0.5 was reached. Bacterial cells were then pelleted at 1,000g for 10 min and resuspended in assay buffer (5 mM HEPES + 20 mM glucose, pH 7.2) to 1.0 OD600 units/ml. The cell suspension was then added to a black, clear bottom 96-well plate (Greiner Bio-One) at a final concentration of 0.5 OD600 units/ml. […] NPN fluorescence (Ex./Em. λ 355, 420) was measured after 1h incubation at room temperature. Relative fluorescence was calculated following the correction of NPN fluorescence in the absence of compound: NPNuptake=[Fobs−Fb]/[Fcontrol−Fb]

K. pneumoniae 13883 = assay: MIC broth microdilution; assay type: cell-based; conditions: Klebsiella pneumoniae, clinical isolate, CAMHB, median of triplicates, read-out: MIC (μg/mL) K. pneumoniae 13883

For O=C1COc2ccc(CNC3CCN(CC4Cc5c(F)cc(F)c6ccc(=O)n4c56)CC3)nc2N1 (stereo not shown) [B1], the EC50 (E. coli MC4100) was 0.5 µg/mL (≈ 1.04 µM), the IC80 (E. coli MC4100) was 2 µg/mL (≈ 4.15 µM) and the “growth inhibition / susceptibility of FQR (gyrA S83L) mutant” value [1] was “remained susceptible to growth inhibition”. The “growth inhibition / susceptibility of GEPR mutant” value [1] was “exhibited cross-resistance”, the cell length (E. coli TOP10F’ cells) was “significantly increased the overall average length of the cells” and the “SOS stress induction in MC4100” value [2] was “induced SOS stress at similar levels as the FQ lomefloxacin”. For the same compound, the “NPN relative fluorescence (membrane permeability)” value (E. coli TOP10F’) was “did not exhibit an increase in fluorescence” and the MIC (K. pneumoniae 13883) was 1 µg/mL (≈ 2.08 µM).
With CC(C)(C)n1cc(C(=O)O)c(=O)c2cc(F)c(N3CC4CC3CN4)nc21 (stereo not shown) [A2] the EC50 (E. coli MC4100) was 0.125 µg/mL (≈ 0.347 µM), the IC80 (E. coli MC4100) was 0.25 µg/mL (≈ 0.694 µM) and the “growth inhibition / susceptibility of FQR (gyrA S83L) mutant” value [1] was “showed cross-resistance”. The “growth inhibition / susceptibility of GEPR mutant” value [1] was “less susceptible”, the cell length (E. coli TOP10F’ cells) was “significantly increased the overall average length of the cells” and the “SOS stress induction in MC4100” value [2] was “induced SOS stress at similar levels as the FQ lomefloxacin”. For the same compound, the “NPN relative fluorescence (membrane permeability)” value (E. coli TOP10F’) was “significant increase in relative fluorescence at 4 and 16 μM” and the MIC (K. pneumoniae 13883) was 0.125 µg/mL (≈ 0.347 µM).
